From ChEMBL document CHEMBL4619738, “Ansamycin derivatives from the marine-derived Streptomyces sp. SCSGAA 0027 and their cytotoxic and antiviral activities” (Bioorg Med Chem Lett, 2020) come the findings set out here.

In brackets after ≈: the same amount, converted by molar mass.

The test system of one series is Shewanella oneidensis. The series is described as follows: Antibacterial activity against Shewanella oneidensis MR-1. It counts as functional.
Series [1] relates to Bacillus amyloliquefaciens. The series is described as follows: Antibacterial activity against Bacillus amyloliquefaciens. It counts as functional.
Another series has as its system Staphylococcus aureus. The series is described as follows: Antibacterial activity against Staphylococcus aureus. It counts as functional.
Series [2] has as its target Heat shock protein HSP 90-alpha (Homo sapiens, UniProt P07900). The series is described as follows: Inhibition of HSP90alpha (unknown origin).
Another series concerns A549. The series is described as follows: Cytotoxicity against human A549 cells assessed as reduction in cell viability. It counts as functional, cell-based.
The subject of a further series is K562. The series is described as follows: Cytotoxicity against human K562 cells assessed as reduction in cell viability. It counts as functional, cell-based.
The test system of series [3] is MCF7. The series is described as follows: cells. To be noted: Homo sapiens.
For series [4], the system named is HL-60. The series is described as follows: cells. Conditions: Homo sapiens; call rule not given here.
In series [5] the test system is MCF7.
In series [6] the test system is HL-60.
Description: Cytotoxicity against human HL60 cells assessed as reduction in cell viability
Series [7] can be described thus: Cytotoxicity against African green monkey Vero cells assessed as reduction in cell viability. It counts as cell-based. Conditions: chlorocebus sabaeus.
The test system of another series is Human alphaherpesvirus 1. The series is described as follows: Antiviral activity against HSV-1 by plaque reduction assay. It counts as functional, organism-based.
[8] abbreviates: Homo sapiens, K562, read-out: IC50.

With `CO[C@H]1/C=C\C=C(/C)C(=O)NC2=CC(=O)C(O)=C(C[C@@H](C)C[C@H](OC)[C@H](O)[C@@H](C)/C=C(\C)[C@@H]1OC(N)=O)C2=O`, the MIC (against Shewanella oneidensis; in series [1]; in the series with Staphylococcus aureus) was > 200 µg/mL in each case. Besides, the concentration for half-maximal inhibition (IC50) in series [2] (read-out: IC50) turned out to be 4.1 µM; in the series with A549, 7.7 µM; with K562 (setting [8]), 4.8 µM; with MCF7 [3] it was 9.9 µM; with HL-60 [4], 36 µM.

`CO[C@H]1C[C@H](C)Cc2cc(cc(O)c2O)NC(=O)/C(C)=C/CC[C@H](OC)[C@@H](OC(N)=O)/C(C)=C/[C@H](C)[C@H]1O`: the minimum inhibitory concentration (MIC) (in the series with Shewanella oneidensis; in series [1]; against Staphylococcus aureus) was > 200 µg/mL throughout. The 50% inhibitory concentration (IC50) in series [2] (read-out: IC50) was 0.03 µM; in the series with A549, > 50 µM; in the series with K562 (k562) it was “Not Active”; in the series with MCF7 [5] it was “Not Active”; in the series with HL-60 [6], “Not Active”.

For the molecule `COc1c(O)cc2c3c1C[C@@H](C)C[C@H](OC)[C@H](O3)[C@@H](C)/C=C(\C)[C@H](OC(N)=O)[C@@H](OC)/C=C/C=C(\C)C(=O)N2`, the MIC (with Shewanella oneidensis; in series [1]; against Staphylococcus aureus) was > 200 µg/mL throughout. The IC50 result is “Not Active” in series [2]; 37 µM in the series with A549; 43 µM in the series with K562 (setting [8]); 36 µM in the series with MCF7 [3]; 35 µM in the series with HL-60 [4].

Regarding `CC[C@H]1/C=C/[C@@H]([C@H](C)O)OC(=O)/C(C)=C/CC(=O)Nc2cc(O)cc3c2O[C@@]2(CC1)CC(=O)[C@@H](C)[C@H]3O2`, the half-maximal cytotoxic concentration (CC50) in series [7] stood at 510 µM. In [7] (read-out: MNCC), the MNTC was found to be 160 µM. The IC50 in the series with Human alphaherpesvirus 1 is 19 µM.

On to `COc1c(O)cc2c3c1C[C@@H](C)C[C@H](OC)[C@H](O3)[C@@H](C)/C=C(\C)[C@H](OC(N)=O)[C@@H](OC)CC/C=C(\C)C(=O)N2`, for which the minimal inhibitory concentration (MIC) (against Shewanella oneidensis; in series [1]; against Staphylococcus aureus) was > 200 µg/mL in each case. Moreover, the IC50 result in series [2] is “Not Active”; in the series on A549, 65 µM; with K562 (setting [8]), 43 µM; with MCF7 [3], 70 µM; in the series on HL-60 [4] it was 86 µM.

`COc1c(O)cc2c3c1C[C@@H](C)C[C@H](OC)[C@H](O3)[C@@H](C)/C=C(\C)[C@H](OC(N)=O)[C@@H](OC)C[C@@H](O)/C=C(\C)C(=O)N2`: the MIC with Shewanella oneidensis was > 200 µg/mL; in series [1], 100 µg/mL (≈ 178 µM); against Staphylococcus aureus, 50 µg/mL (≈ 88.9 µM). Further, the half-maximal inhibitory concentration (IC50) in series [2] (read-out: IC50) is 96 µM; in the series with A549, > 100 µM; in the series on K562 (setting [8]), > 100 µM; in the series on HL-60 [6], “Not Active”; in the series on MCF7 [3], > 100 µM.

On to `COc1c(O)cc2c3c1C[C@@H](C)C[C@H](OC)[C@H](O3)[C@@H](C)/C=C(\C)[C@H](OC(N)=O)[C@@H](OC)/C=C\C=C(\C)C(=O)N2`, for which the MIC (against Shewanella oneidensis; in [1]; in the series on Staphylococcus aureus) was > 200 µg/mL in each case. The concentration for half-maximal inhibition (IC50) entry was “Not Active” in series [2]; 13 µM with A549; 18 µM in the series with K562 (setting [8]); 35 µM in the series on MCF7 [3]; 48 µM in the series with HL-60 [4].

`COc1c(O)cc2c3c1C[C@@H](C)C[C@H](OC)[C@H](O3)[C@@H](C)/C=C(\C)[C@H](OC(N)=O)[C@@H](OC)/C=C\C=C(/C)C(=O)N2`: the MIC (with Shewanella oneidensis; in [1]; in the series on Staphylococcus aureus) was > 200 µg/mL throughout. In addition, the IC50 result in [2] is “Not Active”; with A549 it was 16 µM; with K562 (setting [8]), 14 µM; in the series on MCF7 [3], 20 µM; in the series with HL-60 [4] it was 27 µM.

`COC1=C2C[C@@H](C)C[C@H](OC)[C@H](O)[C@@H](C)/C=C(\C)[C@H](OC(N)=O)[C@@H](OC)/C=C\C=C(/C)C(=O)NC(=CC1=O)C2=O` [GELDANAMYCIN]: the MIC (against Shewanella oneidensis; in series [1]; in the series with Staphylococcus aureus) was > 200 µg/mL each time.

With `CO[C@H]1/C=C\C=C(/C)C(=O)NC2=CC(=O)C=C(C2=O)[C@H](OC)[C@@H](C)C[C@H](OC)[C@H](O)[C@@H](C)/C=C(\C)[C@@H]1OC(N)=O` [HERBIMYCIN C], the MIC is > 200 µg/mL against Shewanella oneidensis, 100 µg/mL (≈ 178 µM) in series [1] and 50 µg/mL (≈ 89.2 µM) against Staphylococcus aureus. Besides, the IC50 in series [2] (read-out: IC50) amounted to 31 µM; in the series with A549 it was 19 µM; in the series with K562 (setting [8]), 20 µM; in the series with MCF7 [3], 20 µM; with HL-60 [4], 56 µM.

Regarding `CC(=O)O[C@H]1C(=O)[C@@]2(C)[C@H]([C@H](OC(=O)c3ccccc3)[C@]3(O)C[C@H](OC(=O)[C@H](O)[C@@H](NC(=O)c4ccccc4)c4ccccc4)C(C)=C1C3(C)C)[C@]1(OC(C)=O)CO[C@@H]1C[C@@H]2O` [PACLITAXEL], the IC50 result in series [2] is reported as “Not Active”.

Take `COc1c(O)cc2cc1C[C@@H](C)C[C@H](OC)[C@H](O)[C@@H](C)/C=C(\C)[C@H](OC(N)=O)[C@@H](OC)CC/C=C(\C)C(=O)N2` [REBLASTATIN]: the MIC (in the series on Shewanella oneidensis; in series [1]; against Staphylococcus aureus) was > 200 µg/mL each time. Moreover, the IC50 was 0.005 µM in series [2] (read-out: IC50), 0.7 µM in the series on A549, “Not Active” in the series on MCF7 [5] and “Not Active” with HL-60 [6].
